According to patent publication US20200113882A1, “Use of 4-Aminopyridine to Improve Neuro-Cognitive and/or Neuro-Psychiatric Impairment in Patients with Demyelinating and Other Nervous System Conditions” (priority 2009, published 2020):

What was measured:
[1] = single- and repeated-dose toxicity studies in animals; format: in vivo
Experimental: In single- and repeated-dose toxicity studies, the dosing regimen greatly affected the rate of mortality and incidence of clinical signs in all species studied (with the possible exception of the mouse). In general, higher mortality rates and greater incidences of adverse clinical signs were noted when 4-aminopyridine was administered in a single large dose as compared to when the same total dose was given as two, three, or four equally divided sub-doses. Toxic responses to orally administered 4-aminopyridine were rapid in onset, most often occurring within the first 2 hours post-dose.
These clinical signs were not unexpected and represent exaggerated pharmacology of 4-aminopyridine.

[2] = rat pharmacokinetics after i.v. and p.o. 2 mg/kg (M 2001-03); conditions: rats, single p.o. 2 mg/kg
[3] = adverse events in clinical studies; format: in vivo, human; conditions: controlled clinical studies
Source text: In controlled clinical studies involving the use of fampridine, the most frequent adverse events by body system occurred in the nervous system, “body as a whole”, and digestive system.
While an increased incidence of such events appears to be moderately dose-related, the susceptibility of individuals is quite variable. The potential for lowering seizure threshold in people with MS appears to be more significant than for people with spinal cord injury, which may result from interaction of the channel-blocking properties of the drug with MS brain pathology in certain individuals.

[4] = tested on: normal adult myelinated axons; conditions: cited from earlier work
[5] = tested on: cognitive function in MS patients; conditions: prior study; cited from earlier work
[6] = 14C-4-aminopyridine single oral dose 1 mg/kg in rats (HWI 6379-101): absorption, tissue distribution
Experimental: (§1) Studies were performed in rats and dogs using ^14C-labeled 4-aminopyridine (1 mg/kg) given as a single oral gavage dose in solution.
In a single-dose study, rats were administered ^14C-labeled 4-aminopyridine (1 mg/kg) p.o. Three animals per time point were sacrificed 1, 3, 8, and 24 hours post-dose. Blood was collected and tissues were excised for determination of radioactivity.

[7] = 14C-4-aminopyridine single oral dose 1 mg/kg in dogs (HWI 6379-102): absorption; format: in vivo, dog; conditions: equal mg/kg doses, 1 mg/kg oral
Experimental: as §1

[8] = rats, 1 mg/kg p.o., one hour post-dose

With `Nc1ccncc1` [4-aminopyridine] the clinical signs ([1]; after large single doses or repeated lower doses, all species studied) was “tremors, convulsions, ataxia, dyspnea, dilated pupils, prostration, abnormal vocalization, increased respiration, excess salivation, gait abnormalities, and hyper- and hypo-excitability”, the “onset of toxic responses post-dose” value ([1]; orally administered, most often) was at most 2 h and the “Vdss difference between males and females adjusted for body weight” value [2] was 2%. The “most common nervous system adverse events” value [3] was “Dizziness, insomnia, paresthesia, pain, headache and asthenia”, the “most frequently reported digestive system adverse event” value [3] was “nausea” and the “concentrations that tend to cause gradual depolarization of the axon resting potential” value ([4]; (94.1 μg/mL)) was “above 1 mM”. The “concentrations at which action potential shows little or no sensitivity” value ([4]; normal adult myelinated axons (9.4 μg/mL)) was “below 100 μM” and the “benefit of cognitive function” value [5] was “did not show benefit”.

With `Nc1ccncc1` [14C-4-Aminopyridine] the “time to peak plasma levels” value ([6]; both, rat, in vivo, po, 1 mg/kg) was 0.5 to 1 h, the “radioactive dose in carcass” value ([6]; rats, 1 mg/kg p.o., 3 hours post-dose) was 15.4% and the “dose accounted for in total (radioactivity)” value [6, 8] was 58.3%. The “radioactivity in blood, percent of dose” value [6, 8] was 0.7%, the radioactivity in carcass [6, 8] was 51% and the “radioactivity in kidney, percent of dose” value [6, 8] was 1.6%. For the same compound, the “radioactivity in liver, percent of dose” value [6, 8] was 2.6% and the “Cmax and AUC in the dog relative to the rat” value [7] was “approximately four-fold higher”.
